Experimental data: patent US20230295212A1 (ROME Therapeutics, Inc., priority 2022, published 2023)

What was measured:
[1] = system: THP1-Dual KO-TREX1 xenograft tumors; assay: Altering IFN production in THP1 TREX1 KO xenografts (compounds 2, 25, 40); format: in vivo, mouse; settings: CB-17 SCID mice, decitabine 5 mg/kg IP, test compound 10, 30 or 100 mg/kg PO once daily 4 days, tumors 24 h post-last dose
Experimental: Exemplary compounds 2, 25 and 40 were tested for their ability to alter IFN levels in THP1-Dual™ KO-TREX1 xenografts in mice. Assay procedures are described below.
CB-17 SCID female mice were inoculated subcutaneously with 10 million THP1-Dual™ KO-TREX1 cells in 200 μl PBS with Matrigel (1:1) and grouped when tumor volume reached 350-400 mm^3. Mice bearing THP1-Dual™ KO-TREX1 xenograft tumors were then separated into 5 groups. Three groups were administered: (1) decitabine (DAC) at 5 mg/kg IP, once daily, for 4 days, and (2) test compound at 10, 30, or 100 mg/kg, PO, once daily, for 4 days. One group was administered decitabine (DAC) at 5 mg/kg IP, once daily, for 4 days, and the test compound vehicle control. The final group was administered the vehicle control from both the test compound and the vehicle control from decitabine. Decitabine is formulated in sterile PBS, pH 7.4, and Compound 2, 25, and 40 were formulated in 20% PEG400 in PBS.
Tumors were harvested 24 h post-last dose administered on day 4, ground in PBS at 50 Hz for 5 min, and kept on ice for 30 min while being vortexed every 5 min. […] Equal amounts of proteins were added to 96-well black plates, and luciferase signal was measured using the QUANTI-Luc™ detection medium according to manufacturer's instructions. Luminescence was measured using the EnVision® 2105 Multimode Plate Reader. […]

[2] = system: interferon-stimulated gene (ISG) response; assay: In vivo decitabine challenge model in C57BL/6 mice (ISG response); design: species or system mouse; settings: decitabine i.p. 5 mg/kg
Experimental: Exemplary compounds were tested for ability to alter the interferon-stimulated gene (ISG) response in C57BL/6 mice treated with decitabine. Assay procedures and results are described below. Twenty 9-11 week old C57BL/6 mice were acclimated to the lab for at least 5 days. Compound 23 was prepared in a 0.5% methylcellulose solution for p.o. administration. Decitabine (Sigma-Aldrich) was dissolved in sterile PBS (pH 7.4) and dosed within 30 minutes of preparation of the solution. Doses of both the compound and decitabine were administered once a day, every day from Day 0 to Day 4. On Day 0, mice were split into five groups of five mice and given their first dose of decitabine (i.p., 5 mg/kg) and compound 23. Dosing groups were: Decitabine and compound 23 were administered daily from Day 0 to Day 4. All mice were euthanized 1 hour after the last dose administration on Day 4. Spleens, liver, and terminal colon were collected, along with plasma from each animal. The fold changes in interferon-stimulated gene (ISG) expression was calculated by first normalizing to GAPDH gene using the Delta CT method. The CT (gene of interest)—CT (reference gene) was calculated to generate a delta CT for all samples. The fold change was then calculated by taking the Log2(Delta CT(control)—Delta CT (experimental). The control in this example was the PBS control animal group. The Taqman duplex assay was used to determine levels of GAPDH v. IFIT2. Twenty 9-11 week old C57BL/6 mice were acclimated to the lab for at least 5 days. Compound 2 was prepared in 20% PEG400 in PBS (final pH 4.5) for p.o. administration. Decitabine (Sigma) was dissolved in sterile PBS (pH 7.4) and dosed within 30 minutes of preparation of the solution. Doses of both Compound 2 and decitabine were administered once a day. On Day 0, mice were split into five groups of five mice and given their first dose of decitabine and Compound 2. […] The fold changes in interferon-stimulated gene (ISG, specifically IRF7 and MX1) expression was calculated by first normalizing to GAPDH gene using the Delta CT method. […]

Nc1ccn([C@H]2C[C@H](O)[C@](CO)(CCl)O2)c(=O)n1 [Compound 2, 4-amino-1-((2R,4S,5R)-5-(chloromethyl)-4-hydroxy-5-(hydroxymethyl)tetrahydrofuran-2-yl)pyrimidin-2(1H)-one]
inhibition of DAC-induced IFN signal in THP1 tumors [1]: potent inhibition of DAC-induced IFN signal
change in interferon-stimulated gene (ISG) response (FIG. 2A) ([2]; compound p.o. 0.6, 2.0, 6.0 mg/kg daily Day 0 to Day 4, IFIT2 v. GAPDH): change in ISG response
change in interferon-stimulated gene (ISG) response (FIGS. 2B and 2C) ([2]; compound p.o. 1, 10, 100 mg/kg daily, kidneys, IRF7 and MX1): change in the ISG response
